Source: publication PMC9065145, “Open label safety and efficacy pilot to study mitigation of equine recurrent uveitis through topical suppressor of cytokine signaling-1 mimetic peptide” (Scientific Reports, 2022)
Like-named read-outs stand apart in the source and are kept apart here. Ends that are not written are not given here. palmitoyl‑Lys = palmitoyl-lysine

Key:
SOCS1-/- mice = conditions: cited from earlier work
Excerpt: (§1) Many of the uveal tract destructive cytokines produced by infiltrating T lymphocytes are dependent on Jak2 for either production or signal transduction[38],[46]. […] Endogenous SOCS1 binds to the activation loop of JAK2, inhibit ...

[1] = test system: lupus pathologies in preclinical models; conditions: cited from earlier work
Excerpt: as §1

[2] = test system: equine recurrent uveitis (ERU); format: in vivo, horse; conditions: for Response to mimetic: symbols not defined
Excerpt: A priori ERU patients with confirmed ERU but lacking severe ophthalmic decrements (evidence of chronicity), were optimal for enrollment in clinical trial. However, given the unmet need presented by ERU, horses with uncontrolled ERU-mediated inflammation were also enrolled (even with ophthalmic decrement), given that peptide efficacy could be assessed. Reduction in hyperemia was established as the primary endpoint evaluation of peptide efficacy. A priori power analysis established that nine patients would be required to assess a significant decrease in hyperemia, based on historical data from the institution. Ten total patients were enrolled through direct contact with Dr. Plummer. […] No exclusions were made, with all participants noted in Table 1. All procedures were conducted on equine patients subsequent to owner consent.
Ten horses (7 geldings and 3 mares) diagnosed with ERU were enrolled in a short-term, open-label trial to assess the efficacy of topical SOCS1 KIR. The administration of the SOCS1 KIR peptide was in the context of a therapeutic treatment. The horses of varied breed (appaloosa, quarter horse, miniature, and paint- aged 5–21) enrolled in the trial, presenting with acute or insidious disease, were admitted into the University of Florida Veterinary Hospital for 4–7 days to begin treatments with topical SOCS1 KIR. The horses admitted to the clinic were closely evaluated for efficacy and possible negative effects of the treatment. Examinations included intraocular pressure measurement, slit lamp biomicroscopy, and direct and indirect ophthalmoscopy as possible. 200 µg of SOCS1 KIR was administered in 100 µL topically, which was a small volume that prevented reflex tear formation and possible peptide elimination. Seven of 10 patients presented with bilateral disease for a total evaluation of 17 eyes to assess peptide efficacy (Table 1). After hospitalization, ERU patients were returned to their owners, who continued peptide administration from home. The horses underwent complete physical and ophthalmic examinations at day 0, day 3, day 14, and day 42. During the ophthalmic examinations, the horses were scored for discomfort, hyperemia, and aqueous flare using a modified MacDonald-Shadduck System[35] by both the attending veterinary ophthalmologist and four additional masked veterinary ophthalmologists. Safety outcomes at each observation period included: (i) ocular irritation scores (utilizing the modified MacDonald-Shadduck scoring system-); (ii) number of new cases of ocular infections; (iii) number of horses affected with peptide-mediated damage to the eye; (iv) intraocular pressure (mmHg); and (v) ERG b-wave amplitudes to assess retinal function.
Specific rationale is as follows: Given the novelty of the use of topical SOCS1-mimetic peptide, the administration of peptide in this pilot study was ethically conducted in open-label fashion, without randomization, so that rescue medications could be administered, if necessary. […] A single investigator (C.P.) was aware of the drug allocations and the results of clinical evaluations. However, 4 masked veterinarians were utilized to obtain the clinical scoring obtained in Fig. 4E. Given the open enrollment utilized in this pilot study and the administration of drug by patient owners at home, confounders could not be controlled. Placebo medications were not utilized, although SOCS1 mimetic peptide was provided as compassionate use as specific owners noted symptom resumption during drug dry out period (not statistically analyzed).
Experimental data are presented as mean ± standard error of the mean […]. All statistical analyses were performed using GraphPad Prism version 8 software (GraphPad Software, La Jolla, CA, USA). For the in vivo assessment of ERU recovery, paired students t tests were utilized. The data were deemed statistically significant if P ≤ 0.05. […]

induced uveitis = conditions: cited from earlier work
[3] = test system: experimental autoimmune encephalomyelitis (a rodent model of multiple sclerosis); set-up: method as in PMID 21788442, PMID 21131060, PMID 33737712; conditions: peritoneal administration; cited from earlier work
[4] = test system: experimentally induced uveitis; set-up: method as in PMID 27703302, PMID 26094775; conditions: mice, topical application as simple eye drop; cited from earlier work
[5] = test system: pJAK2 (1001–1013) peptide; experiment: Competitive inhibition binding assay; conditions: 5 µg/mL biotinylated pJAK2 pre-incubated with increasing soluble SOCS1-KIR (8-500, printed mg/mL), RT, then direct binding assay; semi-logarithmic fit R2 ≥ 0.95; n = 3
Protocol: Direct binding assays were performed at room temperature (RT) for 2 h as previously described[34] with modifications. Briefly, Polystyrene 96-well flat bottom plates were seeded with SOCS1 KIR peptide (500 µg/mL) in 0.05 M carbonate-bicarbonate buffer (pH 9.6). The plates were washed 4 times in the wash buffer (Phosphate-buffered saline in 0.05% Tween-20) followed by incubation for 2 h in blocking buffer (3% bovine serum albumin (BSA), 3 mM ethylenediaminetetraacetic acid (EDTA), 0.1% gelatin, and 0.05% Tween 20) and then washed 4 times. Serial dilutions of biotinylated phosphorylated JAK2 (pJAK2) in assay diluent (2% BSA, 3 mM EDTA, 0.01% gelatin, and 0.05% Tween 20) (10, 5, 2.5, 1.25, 0.625, 0.312 µg/mL) were then added to the coated plates for 90 min followed by washing 7 times. Streptavidin- horseradish peroxidase (1:4000, HRP) [BD Biosciences, Cat# 554066] was then added for 30 min followed by 12 wash cycles. Finally, 100 µL 3,3′,5,5′-Tetramethylbenzidine (TMB) substrate [BD Biosciences, Cat# 555214] was added for 30 min followed by assessment with spectrophotometer readings at an absorbance of 450 nm. For competitive Inhibition assays, 5 µg/mL biotinylated pJAK2 was pre-incubated with varying concentrations of SOCS1-KIR ([…]) for 1 h at RT prior and then, a direct binding assay was performed. […]

[6] = test system: experimentally induced uveitis; set-up: method as in PMID 27703302, PMID 26094775; conditions: rats, topical application as simple eye drop; cited from earlier work
[7] = molecular target: T1, pJAK2 activation loop peptide (Equus caballus); experiment: ELISA-type direct plate binding assay
T1 chain: LPQDKEYYKVKEP

[8] = ERU horses, topical, not reaching statistical significance

DTHFRTFRSHSDYRRI [SOCS1-KIR]
perinatal lethality of SOCS1-/- mice (SOCS1-/- mice; peritoneal administration): rescued SOCS1-/- mice from perinatal lethality
circulating memory T cells and Foxp3 high T lymphocytes (SOCS1-/- mice; rodent model of SOCS1 genetic deficiency, peritoneal injection): decreased circulating memory T cells and increased Foxp3 high T lymphocytes
lupus pathologies ([1]; peritoneal administration, preclinical models): reduced lupus pathologies
circulating memory T cells and Foxp3 high T lymphocytes ([1]; spontaneous lupus model, peritoneal injection): decreased circulating memory T cells and increased Foxp3 high T lymphocytes
resolution of inflammatory processes coinciding with administration (number of horses) ([2]; ERU horses other than patient 2, 4 horses also received diclofenac and/or atropine): eight of the remaining 9 horses
reduction in clinical scoring, masked veterinary scoring of ocular photographs ([2]; ERU horses, by 6 weeks of topical treatment, four masked veterinarians, n = 8, statistically significant): 75%
patients responsive to administration as a monotherapy ([2]; ERU horses, topical): four of the ten patients
reduction in hyperemia clinical scoring ([2]; ERU horses, topical 200 µg in 100 µl twice a day, 6-week evaluation, modified MacDonald-Shadduck score, n = 14 eyes, p < 0.01, paired t test): 40%
reduction in aqueous flare ([2]; ERU horses, topical 200 µg in 100 µl twice a day, 6 weeks, modified MacDonald-Shadduck score, n = 14, p < 0.01): 50%
reduction in overall discomfort ([2]; ERU horses, topical 200 µg in 100 µl twice a day, 6 weeks, n = 8, eyes without discomfort omitted, p < 0.05): near complete reduction
hypopyon [2, 8]: consistent improvements
intraocular pressure [2, 8]: consistent improvements
patients refractory to mimetic treatment ([2]; ERU horses, the refractory patients had severe disease): 3/10
Response to mimetic ([2]; PT1: Appaloosa gelding, 21 years, severe disease, blind OS, bilateral, plus diclofenac/atropine, 9 months): + +
Response to mimetic dryout period ([2]; PT1: severe disease, plus diclofenac/atropine): yes
Response to mimetic ([2]; Pt 3: Miniature gelding, 16 years, severe disease, bilateral, monotherapy, lost to followup): + + +
Response to mimetic ([2]; Pt 4: Paint mare, 16 years, moderate disease, plus atropine, 2 months): + + +
Response to mimetic ([2]; Pt 5: Appaloosa gelding, 17 years, mild disease, bilateral, monotherapy, 8 months): + + +
Response to mimetic dryout period ([2]; Pt 5: mild disease, monotherapy): yes
Response to mimetic ([2]; Pt 7: Appaloosa gelding, 16 years, mild, bilateral, monotherapy, 3 months): + + +
Response to mimetic dryout period ([2]; Pt 7: mild, monotherapy): yes
Response to mimetic ([2]; Pt 9: Appaloosa mare, 14 years, moderate disease, bilateral, plus diclofenac/atropine, 8 months): + + +
Response to mimetic dryout period ([2]; Pt 9: moderate disease, plus diclofenac/atropine): yes
drug related negative events, long-term use ([2]; in vivo): no observed drug related negative events
systemic immune suppression ([2]; in vivo): no observed systemic immune suppression
discomfort and inflammation when treatment was resumed (compassionate use) ([2]; owner-noted, after return of inflammation in the peptide dry-out period, four owners, not quantitated): subsequent decreases in discomfort and inflammation
clinical improvement, patient 2 ([2]; severe ERU, minimal sight in one eye, SOCS1-KIR 2 mg/ml topical, inflammation persisted, euthanised): very modest clinical improvement
chemokines CCL2, CCL20 and CXCL9 and chemokine receptors CCR2, CCR4, CCR6 and CXCR3 (induced uveitis; induced uveitis rodent studies): decreases
TH1- and TH17-associated cytokines and IL-10 (induced uveitis; rodent models of uveitis, topical administration to the eye): suppresses both TH1- and TH17- associated cytokines, while promoting the production of IL-10
progression of experimental autoimmune encephalomyelitis [3]: inhibited progression of experimental autoimmune encephalomyelitis
experimentally induced uveitis [4]: mitigated experimentally induced uveitis
signal intensity of pJak2 (1001–1013) binding to plate bound SOCS1-KIR peptide [5]: semi-logarithmic decrease in the signal intensity
experimentally induced uveitis [6]: mitigated experimentally induced uveitis

B1: SOCS1-KIR mimetic peptide (peptide)
chain: {palmitoyl‑Lys}-DTHFRTFRSHSDYRRI
Kd [7]: 1700 nM
